The target of one assay is T1, Leucine aminopeptidase (Plasmodium falciparum 3D7, UniProt Q8IL11).
T1 sequence (Q8IL11 whole entry): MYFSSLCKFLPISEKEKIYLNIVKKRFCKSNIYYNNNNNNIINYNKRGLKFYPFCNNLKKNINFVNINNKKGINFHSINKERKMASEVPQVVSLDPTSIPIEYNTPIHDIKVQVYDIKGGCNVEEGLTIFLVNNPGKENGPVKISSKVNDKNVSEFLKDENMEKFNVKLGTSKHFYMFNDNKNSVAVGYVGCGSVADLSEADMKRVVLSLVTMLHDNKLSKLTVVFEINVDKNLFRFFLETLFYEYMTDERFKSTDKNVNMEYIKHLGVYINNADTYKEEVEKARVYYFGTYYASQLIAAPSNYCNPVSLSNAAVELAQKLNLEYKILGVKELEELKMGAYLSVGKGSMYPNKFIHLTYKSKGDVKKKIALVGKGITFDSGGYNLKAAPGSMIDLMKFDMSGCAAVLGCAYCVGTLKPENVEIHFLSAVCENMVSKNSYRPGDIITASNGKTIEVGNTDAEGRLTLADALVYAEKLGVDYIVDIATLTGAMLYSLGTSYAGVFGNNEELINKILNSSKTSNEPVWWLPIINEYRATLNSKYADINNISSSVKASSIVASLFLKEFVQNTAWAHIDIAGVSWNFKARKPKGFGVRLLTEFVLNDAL
Briefly: P. falciparum M17LAP inhibitors, primary screen, biochemical, fluorogenic H-Leu-NHMec substrate, 1536-well (AID 1619). It is filed as functional.

For assay [1], the target named is T2, Carboxy-terminal domain RNA polymerase II polypeptide A small phosphatase 1 (Homo sapiens, UniProt Q9GZU7).
T2 sequence (Q9GZU7 whole entry): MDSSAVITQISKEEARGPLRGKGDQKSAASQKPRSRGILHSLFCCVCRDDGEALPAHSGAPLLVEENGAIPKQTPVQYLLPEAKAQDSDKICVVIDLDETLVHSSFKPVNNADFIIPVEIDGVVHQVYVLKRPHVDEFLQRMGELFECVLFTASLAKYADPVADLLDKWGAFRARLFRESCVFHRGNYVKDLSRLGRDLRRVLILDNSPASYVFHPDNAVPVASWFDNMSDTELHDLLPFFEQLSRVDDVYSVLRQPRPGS
Briefly: CTDSP1 inhibitors, concentration-response, biochemical, absorbance readout, ultra-high-throughput screen actives (AID 540297). It is filed as functional.

Assay [2] has as its target T3, Sentrin-specific protease 1 (Homo sapiens, UniProt Q9P0U3).
T3 sequence (Q9P0U3 whole entry): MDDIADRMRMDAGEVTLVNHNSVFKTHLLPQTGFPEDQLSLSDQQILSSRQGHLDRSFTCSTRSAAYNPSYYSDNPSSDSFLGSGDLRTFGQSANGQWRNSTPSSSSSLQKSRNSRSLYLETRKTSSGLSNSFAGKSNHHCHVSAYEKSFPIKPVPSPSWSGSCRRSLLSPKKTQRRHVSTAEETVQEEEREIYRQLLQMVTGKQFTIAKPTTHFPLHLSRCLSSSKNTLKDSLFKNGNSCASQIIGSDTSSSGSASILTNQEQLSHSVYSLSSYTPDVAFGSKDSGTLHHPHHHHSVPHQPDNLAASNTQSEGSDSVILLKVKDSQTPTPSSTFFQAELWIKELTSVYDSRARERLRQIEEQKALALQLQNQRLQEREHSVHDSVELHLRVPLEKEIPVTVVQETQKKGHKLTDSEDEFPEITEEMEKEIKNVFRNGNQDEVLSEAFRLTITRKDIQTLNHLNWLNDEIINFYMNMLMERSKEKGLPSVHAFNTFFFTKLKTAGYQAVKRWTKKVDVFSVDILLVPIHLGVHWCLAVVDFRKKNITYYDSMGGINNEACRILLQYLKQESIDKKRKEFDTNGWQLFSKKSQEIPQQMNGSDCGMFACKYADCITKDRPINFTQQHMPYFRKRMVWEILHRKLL
Briefly: SENP1 catalytic domain blockers, concentration series – biochemical, kinetic FRET, dose response (AID 651697). It is filed as functional. Conditions: read-out: IC50_Mean.

Assay [3] deals with T3, Sentrin-specific protease 1. Briefly: Dose response confirmation of small molecule inhibitors of the catalytic domain of the SUMO protease, SENP1 in a FRET assay. It is filed as functional. Particulars: read-out: IC50_Mean.
Assay [4] in a line: OVCAR-3 cell viability loss – plate reader, dry powder samples, PAX8 inhibitor project, dose response (AID 743044). It is filed as functional, cell-based.
For the next assay, the target named is Paired box protein Pax-8 (Homo sapiens, UniProt Q06710). Briefly: PAX8 transcriptional activity inhibition in RMG-I – RMG-I cells, luciferase, cherry-pick, dose response (AID 687027).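 Also: luciferase reporter driven by Pax8 target thyroperoxidase promoter measured by SteadyGlo luminescence.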 It is filed as functional, cell-based.
Sequence of Paired box protein Pax-8 (Q06710 whole entry): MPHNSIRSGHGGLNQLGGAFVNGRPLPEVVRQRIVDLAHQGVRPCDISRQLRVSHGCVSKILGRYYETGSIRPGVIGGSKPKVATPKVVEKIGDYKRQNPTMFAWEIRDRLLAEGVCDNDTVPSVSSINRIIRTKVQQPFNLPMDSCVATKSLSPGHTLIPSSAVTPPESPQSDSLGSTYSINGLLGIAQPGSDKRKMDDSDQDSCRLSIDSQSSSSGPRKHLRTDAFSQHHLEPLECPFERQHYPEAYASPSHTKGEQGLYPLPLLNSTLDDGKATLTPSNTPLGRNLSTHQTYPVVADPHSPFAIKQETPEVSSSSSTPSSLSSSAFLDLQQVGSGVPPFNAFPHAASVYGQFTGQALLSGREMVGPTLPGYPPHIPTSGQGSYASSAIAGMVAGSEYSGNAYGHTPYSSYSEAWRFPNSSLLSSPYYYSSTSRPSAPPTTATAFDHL
Assay [5] in a line: IGROV1 cell killing – plate reader, dry powder samples, PAX8 inhibitor project, dose response (AID 743043). It is filed as functional, cell-based. Particulars: IGROV-1.
Assay [6] has as its target T4, Long-chain-fatty-acid--AMP ligase FadD28 (Mycobacterium tuberculosis, UniProt P9WQ59).
T4 sequence (P9WQ59 whole entry): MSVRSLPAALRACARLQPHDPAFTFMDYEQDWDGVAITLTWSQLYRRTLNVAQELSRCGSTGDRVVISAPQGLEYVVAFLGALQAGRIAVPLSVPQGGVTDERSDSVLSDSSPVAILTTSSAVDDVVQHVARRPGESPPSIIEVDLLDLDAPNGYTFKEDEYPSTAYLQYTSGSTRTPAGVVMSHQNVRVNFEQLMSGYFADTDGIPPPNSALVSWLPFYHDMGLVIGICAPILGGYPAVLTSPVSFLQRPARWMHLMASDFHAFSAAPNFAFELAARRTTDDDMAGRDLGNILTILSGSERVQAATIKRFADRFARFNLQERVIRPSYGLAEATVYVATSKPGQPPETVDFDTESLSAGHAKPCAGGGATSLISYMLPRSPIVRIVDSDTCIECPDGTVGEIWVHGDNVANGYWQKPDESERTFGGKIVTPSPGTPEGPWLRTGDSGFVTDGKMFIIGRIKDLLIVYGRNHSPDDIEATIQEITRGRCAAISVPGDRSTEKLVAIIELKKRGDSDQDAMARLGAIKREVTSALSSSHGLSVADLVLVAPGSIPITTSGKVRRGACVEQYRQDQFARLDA
Briefly: Fluorescence polarization aasay to screen for inhibitors that compete for the binding of FadD28 to a bisubstrate Measured in Biochemical System Using Plate Reader - 2147-01_Inhibitor_Dose_CherryPick_Activity. It is filed as functional, Mycobacterium tuberculosis H37Rv. A general note: In fluorescence polarisation assays a small probe gives low polarisation when free and higher when bound to something large.

Assay [7] is described as follows: OVCAR8 cell viability loss – plate reader, dry powder samples, PAX8 project, dose response (AID 743197). Particulars: OVCAR-8. It is filed as functional, cell-based.
A short description of assay [8]: intracellular Trypanosoma cruzi inhibitors in host cells – cell-based, plate reader, cherry-pick samples, set 3, dose response (AID 651818).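 Also: compounds incubated with infected cells for about four days.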 It is filed as functional.
Assay [9] deals with T5, Polyadenylate-binding protein 1 (Homo sapiens, UniProt P11940). Briefly: MLLE domain peptide-binding blockers, IC50 – biochemical, fluorescence polarization, FITC-PAM2 peptide, dose response (AID 602259). It is filed as functional. Conditions: read-out: IC50_Mean.
T5 sequence (P11940 whole entry, the tested form may be a part): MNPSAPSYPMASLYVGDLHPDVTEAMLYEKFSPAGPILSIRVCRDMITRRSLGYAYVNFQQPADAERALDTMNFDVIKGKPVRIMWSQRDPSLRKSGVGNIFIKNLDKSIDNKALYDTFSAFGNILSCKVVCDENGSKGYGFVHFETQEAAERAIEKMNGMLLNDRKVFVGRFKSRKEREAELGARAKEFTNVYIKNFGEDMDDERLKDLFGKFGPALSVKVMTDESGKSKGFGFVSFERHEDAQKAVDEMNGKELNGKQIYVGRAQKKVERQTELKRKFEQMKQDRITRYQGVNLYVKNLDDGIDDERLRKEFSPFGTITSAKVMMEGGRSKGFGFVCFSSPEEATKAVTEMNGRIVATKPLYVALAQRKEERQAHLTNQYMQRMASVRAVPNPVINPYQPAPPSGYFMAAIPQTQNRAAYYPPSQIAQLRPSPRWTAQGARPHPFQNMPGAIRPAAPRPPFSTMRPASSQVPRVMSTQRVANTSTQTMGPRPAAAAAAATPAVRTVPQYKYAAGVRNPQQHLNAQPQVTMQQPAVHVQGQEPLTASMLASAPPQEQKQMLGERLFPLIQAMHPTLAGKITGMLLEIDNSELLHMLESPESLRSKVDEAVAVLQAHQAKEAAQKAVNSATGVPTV
Assay [10] has as its target T5, Polyadenylate-binding protein 1. Briefly: MLLE binding blockers, Cy5 peptide tracer – biochemical, fluorescence polarization, Cy5-PAM2 peptide, secondary, miRNA deadenylation inhibitor project, dose response (AID 602260). It is filed as functional. Conditions: read-out: IC50_Mean.
Assay [11] can be described thus: viability of uninfected HEp-2 cells – cell-based, HTS, cytotoxicity control for RSV inhibitor project, dose response (AID 2410). It is filed as functional. Particulars: human respiratory syncytial virus.
Assay [12] in a line: Luminescence Cell-Based Dose Retest to Confirm Inhibitors of Cancer Stem Cells. [Related pubchem assays (depositor defined):AID2717, AID2721]. It is filed as functional. Particulars: Homo sapiens.

The structures appear in SMILES notation. Counter-ions that a name gives are not always drawn. Calls of active or inactive are those of the source.

With `CCOc1cc(/C=C2\S/C(=N\c3ccccc3)N(c3ccccc3)C2=O)ccc1OCC(=O)O`, the IC50 on Leucine aminopeptidase was 31.3 µM (active).

On to `O=C(O)c1ccc(/C=N/NC(=O)c2cc(-c3ccc4c5c(cccc35)CC4)[nH]n2)cc1`, for which the IC50 on Leucine aminopeptidase was 26.8 µM (active); in assay [1], 4.31 µM (active).

Regarding `COc1cc(O)c(C=Nc2ccccc2NS(=O)(=O)c2ccc(C)cc2)c(OC)c1`, the IC50 is 16.1 µM (active) in [2] and 15.2 µM (active) in assay [3].

For orientation: AC50 means the concentration at which the activity in the assay is half-maximal. With `O=C(Nc1cccc(F)c1)N1CCCCN2[C@@H](CO)[C@@H](c3ccc(-c4ccccc4F)cc3)[C@@H]2C1`, the AC50 in assay [4] is 37.6 µM (active); at Paired box protein Pax-8, 21.1 µM (active); in assay [5] it was 26.9 µM (active).

As for `COc1ccc(/C=C2\CCCc3c2nc2ccc(C)cc2c3C(=O)O)cc1O`, the AC50 in assay [6] was 79.3 µM (active).

With `C[C@@H]1CCCCO[C@@H](CN(C)Cc2ccc(Cl)c(Cl)c2)[C@H](C)CN([C@H](C)CO)C(=O)c2cc(NC(=O)Nc3ccc(F)cc3)ccc2O1`, the AC50 on Paired box protein Pax-8 is 5.06 µM (active); in assay [7], > 70 µM (inactive).

On to `O=C(COc1ncnc2c1cnn2-c1ccccc1)Nc1ccc(S(=O)(=O)N2CCCCC2)cc1`, for which, in [6], the AC50 was > 100 µM (inactive).

Consider `C[C@@H]1CN([C@H](C)CO)C(=O)c2cccc(NS(=O)(=O)c3ccc(F)cc3)c2O[C@@H]1CN(C)Cc1ccc(C(=O)Nc2ccccc2N)cc1`, for which, in [8], the half-maximal activity concentration (AC50) was 2.86 µM (active).

For the molecule `C/C(CCC1CC(C)OC1=O)=N/Nc1nc(-c2ccccc2)cs1` (configuration not stated), the IC50 on Leucine aminopeptidase was 30.8 µM (active).

With `C[C@@H]1CN([C@H](C)CO)S(=O)(=O)c2ccc(C#Cc3cccc(F)c3)cc2O[C@@H]1CN(C)C(=O)NC1CCCCC1`, the AC50 in [4] was 42.1 µM (active); at Paired box protein Pax-8 it was 8.38 µM (active); in [7] it was 33.6 µM (active).

For `CCc1ccccc1NC(=O)CN(C)C(=O)CSc1nnc(Nc2cccc(C)c2C)s1`, the AC50 in assay [6] is 4.79 µM (active).

With `CN1Cc2c(N)cccc2C(c2ccccc2)C1` (configuration not stated) [NOMIFENSINE MALEATE], the IC50 was 8.36 µM (active) in assay [2], > 66 µM (inactive) in assay [9], 8.71 µM (active) in assay [3] and > 66 µM (inactive) in assay [10].

As for `COc1ccc(C2C(C(C)=O)=C(C)N=c3s/c(=C\c4ccco4)c(=O)n32)c(OC)c1` (configuration not stated), the IC50 in [2] was 24.9 µM (inactive); in assay [3], 20.2 µM (inactive).

Usually CC50 stands for the concentration that lowers cell viability or growth by half. As for `CN(C)c1ccc(/C=N/NC(=O)/C(O)=C\C2=NC3(CCCC3)Cc3ccccc32)cc1`, the CC50 in [11] is 25.8 µM (active). Also, the AC50 in assay [12] is 3.54 µM (active). Also, the IC50 in assay [2] is 10.1 µM (active); in [3] it was 13.2 µM (active).

As to `C[C@H]1CN([C@@H](C)CO)C(=O)c2c(c3ccccc3n2C)-c2ccccc2CO[C@@H]1CN(C)Cc1cccc(C(F)(F)F)c1`, the AC50 is 9.89 µM (active) at Paired box protein Pax-8, 53 µM (active) in assay [5] and 43.7 µM (active) in [7].

For the molecule `C[C@@H]1CN([C@@H](C)CO)C(=O)Cc2cc(NC(=O)Nc3cccc4ccccc34)ccc2O[C@@H]1CN(C)Cc1ccc(Cl)c(Cl)c1`, the AC50 in assay [8] was 3.21 µM (active).

Source of the values: ChEMBL document CHEMBL1201862, “PubChem BioAssay data set” (2004).
